The values that follow come from US8586051B2, “Glycolipids and analogues thereof as antigens for NKT cells” (The Rockefeller University, priority 2004, dated 2013).

Structures are written as SMILES.

The subject of experiment [1] is CD1d reactive T cell hybridomas with an invariant Vα14i T cell antigen receptor α chain. Nature of the experiment: 1.2 Hybridoma assay (IL-2 release by ELISA). Format: cell-based, Mouse. The settings on record: for IL-2 secretion: CD1d coated plates, FIG. 8b; for IL-2 release / IL-2 production: various concentrations, FIG. 13. The protocol:
As a measure of T cell activation, IL-2 release into the tissue culture medium was measured after 16 hours culture by an ELISA assay.
As a measure of T cell activation, IL-2 and IFN-γ release into the tissue culture medium was measured after 16 hours culture by an ELISA assay.
In general terms: ELISA stands for enzyme-linked immunosorbent assay.

Experiment [2] has as its system Vα24i human NKT cell line. Nature of the experiment: In vitro cytokine secretion assay using human NKT cell lines with CD14+ dendritic cells. Format: cell-based. The protocol:
(§1) Human NKT cell lines, expressing the Vα24i T cell receptor as well as CD161, were generated as follows: Anti-CD161 monoclonal antibodies, and anti-CD14 monoclonal antibodies, each coupled to magnetic beads (Miltenyi biotec, Auburn, Calif.), were used sequentially to isolate CD161^+ cells and CD14^+ cells from leukopaks. Immature dendritic cells were generated from the CD14^+ cells after a two-day incubation in the presence of 300 U/ml GM-CSF (R&D systems, Minneapolis, Minn.) and 100 U/ml IL-4 (R&D systems, Minneapolis, Minn.). Following irradiation with 2000 rads, the immature dendritic cells were co-cultured with syngeneic CD161′ cells in the presence of 100 ng/ml of alpha-galactosylceramide and 10 IU/ml of IL-2 (Invitrogen, Carlsbad Calif.) for 10 to 14 days. After stimulating the CD161^+ cells a second time with alpha-galactosylceramide-pulsed, irradiated immature dendritic cells, NKT cell lines were shown by flow cytometry to express both CD161^+ and V 24i TCR (99% purity).
IFN-γ and IL-4 secretion by the Vα 24i human NKT cell line was determined by ELISA (BD Pharmingen, San Diego, Calif.) after culture for 16 hours. […]
as §1, with “of 100-0.1” for “of 100”
IFN-γ secretion by the Vα 24i human NKT cell line was determined by ELISA (BD Pharmingen, San Diego, Calif.) after culture for 16 hours. […]

Take `CCCCCCCCCCCCCCC[C@@H](O)[C@H](COC1OC(CO)C(O)C(O)C1O)NC(=O)[C@@H](O)CCCCCCCCCCCC` (some centres unmarked) [Compound 8]: the IL-2 secretion result in experiment [1] is on record as “less able to activate IL-2 secretion when compared with 5”.
Consider `CCCCCCCCCCCCCCC[C@@H](O)[C@H](COC1OC(C(=O)O)C(O)C(O)C1O)NC(=O)[C@@H](O)CCCCCCCCCCCC` (some centres unmarked) [Compound 6], for which the “reactivity of human Vα24i NKT cells” value in experiment [2] is “conserved”.
In the case of `CCCCCCCCCCCCCCC[C@@H](O)[C@H](COC1OC(C(=O)O)C(O)C(O)C1O)NC(=O)CCCCCCCCCCCCC` (some centres unmarked) [Compound 5], the “reactivity of human Vα24i NKT cells” value in experiment [2] is reported as “conserved”.
Take `CCCCCCCCCCCCCC[C@@H](O)[C@@H](O)[C@H](COC1OC(CO)C(O)C(O)C1O)NC(=O)CCCCCCCc1ccccc1` (some centres unmarked) [Compound 84]: the interferon-γ secretion result in experiment [2] (100-0.1 ng/mL, FIGS. 17 and 18) was “consistently stimulating greater IFN-γ secretion”. Moreover, the “IL-2 release / IL-2 production” value in experiment [1] (CD1d transfected A20 cells) was “significant increase of IL-2 production”.
As to `CCCCCCCCCCCCCC[C@@H](O)[C@@H](O)[C@H](COC1OC(CO)C(O)C(O)C1O)NC(=O)CCCCCc1ccccc1` (some centres unmarked) [Compound 83], in experiment [1] (CD1d transfected A20 cells), the “IL-2 release / IL-2 production” value was “significant increase of IL-2 production”.
Take `CCCCCCCCCCCCCCC[C@@H](O)[C@H](COC1OC(CO)C(O)C(O)C1O)NC(=O)CCCCCCCCCCCCC` (some centres unmarked) [Compound 7]: in experiment [1], the IL-2 secretion result is on record as “greater IL-2 secretion when compared to the galacturonic acid derivatives”.
In the case of `CCCCCCCCCCCCCCCCCCCCCCCCCC(=O)N[C@@H](CO[C@H]1O[C@H](CO)[C@H](O)[C@H](O)[C@H]1O)[C@H](O)[C@H](O)CCCCCCCCCCCCCC` [α-GalCer, α-Galactosylceramide, reference compound], the IL-4 secretion entry in experiment [2] (10 μg/ml glycolipid (1-10 μg/ml for 3-O-sulfo-α-galactosylceramide), 10 IU/ml IL-2) was “greater IFN-γ and IL-4 secretion”. In experiment [2] (10 μg/ml glycolipid (1-10 μg/ml for 3-O-sulfo-α-galactosylceramide), 10 IU/ml IL-2, FIG. 9a), the IFN-γ secretion result is “greater IFN-γ and IL-4 secretion”. The “IL-2 release from the hybridomas” value in experiment [1] (1 μg/ml, CD1d transfected A20 cells, FIG. 12) is on record as “greatest amount of IL-2 release”. In experiment [1], the IL-2 secretion result is “greater IL-2 secretion when compared to the galacturonic acid derivatives”.
